Reference: PubChem BioAssay AID1745844 (Carcinogenic Potency Database (CPDB), 2022)
“And” between values parts separate entries of the source, which are not always exact repeats. Identical values can stand only once. The source made the active and inactive calls. How the calls were made is not given here.

Tested on: rodent lifetime carcinogenesis bioassay, tumor incidence TD50
Test: chronic cancer bioassays in animals – CPDB, compiled studies (AID 1745844)
Conditions: in feed

COP(=O)(OC)OC(=CCl)c1cc(Cl)c(Cl)cc1Cl
TD50 (mouse, strain B6C3F1, females, site: any site (literature study), lesion: several types, types named in the paper, dosed 80 weeks, study length 92 weeks): 7880 mg/kg/day
TD50 (mouse, strain B6C3F1, females, site: kidney, lesion: several types, types named in the paper, dosed 103 weeks, study length 103 weeks): 32100 mg/kg/day
TD50 (mouse, strain B6C3F1, females, site: liver, lesion: hepatocellular adenoma + hepatocellular carcinoma + neoplastic nodule, dosed 80 weeks, study length 92 weeks): 905 mg/kg/day
TD50 (mouse, strain B6C3F1, females, site: liver, lesion: hepatocellular carcinoma + neoplastic nodule, dosed 80 weeks, study length 90 weeks): 1070 mg/kg/day
TD50 (mouse, strain B6C3F1, females, site: liver, lesion: hepatocellular carcinoma + neoplastic nodule, dosed 80 weeks, study length 92 weeks): 905 mg/kg/day
TD50 (mouse, strain B6C3F1, females, site: liver, lesion: hepatocellular carcinoma, dosed 103 weeks, study length 103 weeks): 12400 mg/kg/day and 8990 mg/kg/day
TD50 (mouse, strain B6C3F1, females, site: liver, lesion: neoplastic nodule, dosed 80 weeks, study length 90 weeks): 1380 mg/kg/day
TD50 (mouse, strain B6C3F1, females, site: liver, lesion: several types, types named in the paper, dosed 103 weeks, study length 103 weeks): 10200 mg/kg/day and 6330 mg/kg/day
TD50 (mouse, strain B6C3F1, females, site: lung, lesion: alveolar/bronchiolar adenoma + alveolar/bronchiolar carcinoma, dosed 80 weeks, study length 92 weeks): 7790 mg/kg/day
TD50 (mouse, strain B6C3F1, males, site: any site (literature study), lesion: several types, types named in the paper, dosed 80 weeks, study length 92 weeks): 295 mg/kg/day
TD50 (mouse, strain B6C3F1, males, site: kidney, lesion: several types, types named in the paper, dosed 103 weeks, study length 103 weeks): 4420 mg/kg/day
TD50 (mouse, strain B6C3F1, males, site: kidney, lesion: tubular adenoma, dosed 103 weeks, study length 103 weeks): 37600 mg/kg/day
TD50 (mouse, strain B6C3F1, males, site: kidney, lesion: tubular carcinoma, dosed 103 weeks, study length 103 weeks): 5260 mg/kg/day
TD50 (mouse, strain B6C3F1, males, site: liver, lesion: hepatocellular adenoma + hepatocellular carcinoma + neoplastic nodule, dosed 80 weeks, study length 92 weeks): 228 mg/kg/day
TD50 (mouse, strain B6C3F1, males, site: liver, lesion: hepatocellular adenoma, dosed 103 weeks, study length 103 weeks): 18300 mg/kg/day
TD50 (mouse, strain B6C3F1, males, site: liver, lesion: hepatocellular carcinoma + neoplastic nodule, dosed 80 weeks, study length 90 weeks): 280 mg/kg/day
TD50 (mouse, strain B6C3F1, males, site: liver, lesion: hepatocellular carcinoma + neoplastic nodule, dosed 80 weeks, study length 92 weeks): 228 mg/kg/day
TD50 (mouse, strain B6C3F1, males, site: liver, lesion: hepatocellular carcinoma, dosed 80 weeks, study length 90 weeks): 534 mg/kg/day
TD50 (mouse, strain B6C3F1, males, site: liver, lesion: hepatocellular carcinoma, dosed 80 weeks, study length 92 weeks): 466 mg/kg/day
TD50 (mouse, strain B6C3F1, males, site: liver, lesion: hepatocellular carcinoma, dosed 103 weeks, study length 103 weeks): 1530 mg/kg/day
TD50 (mouse, strain B6C3F1, males, site: liver, lesion: neoplastic nodule, dosed 80 weeks, study length 90 weeks): 1770 mg/kg/day
TD50 (mouse, strain B6C3F1, males, site: liver, lesion: several types, types named in the paper, dosed 103 weeks, study length 103 weeks): 1150 mg/kg/day
TD50 (mouse, strain B6C3F1, males, site: lung, lesion: alveolar/bronchiolar adenoma + alveolar/bronchiolar carcinoma, dosed 80 weeks, study length 92 weeks): 401000 mg/kg/day
TD50 (rat, strain Osborne-Mendel, females, site: adrenal gland, lesion: cortical adenoma, dosed 80 weeks, study length 109 weeks): 2280 mg/kg/day
TD50 (rat, strain Osborne-Mendel, females, site: pituitary gland, lesion: chromophobe adenoma, dosed 80 weeks, study length 111 weeks): 1580 mg/kg/day (inactive)
TD50 (rat, strain Osborne-Mendel, females, site: thyroid gland, lesion: c-cell adenoma, dosed 80 weeks, study length 109 weeks): 1920 mg/kg/day
carcinogen call (rat, strain Osborne-Mendel, males, site: any site (literature study), lesion: several types, types named in the paper, dosed 80 weeks, study length 111 weeks): negative (inactive)

O=P(=O)O
TD50 (rat, strain F344/DuCrj, females, site: any site (literature study), lesion: several types, types named in the paper, dosed 108 weeks, study length 108 weeks): 5100 mg/kg/day (inactive)
carcinogen call (rat, strain F344/DuCrj, females, site: liver, lesion: one or several types, types not named, dosed 108 weeks, study length 108 weeks): negative (inactive)
carcinogen call (rat, strain F344/DuCrj, males, site: any site (literature study), lesion: several types, types named in the paper, dosed 108 weeks, study length 108 weeks): negative (inactive)
carcinogen call (rat, strain F344/DuCrj, males, site: liver, lesion: one or several types, types not named, dosed 108 weeks, study length 108 weeks): negative (inactive)
